Measured values from publication PMC4624780 (PLoS ONE, 2015).
Square brackets hold non-standard residues; d marks the D form. Peptide text beside a SMILES is read from it. Ahx = NCCCCCC(=O)O

Legend:
[1] = tested on: 3A N-terminal (1–52) peptide dimer; format: biochemical, foot-and-mouth disease virus (FMDV)

Molecule	inhibition of viral production (FMDV C-S8c1)	reduction of viral yield at concentrations lower than 100 μM (FMDV C-S8c1)	inhibition of viral production at 100 μM (FMDV C-S8c1; 24 h, 100 μM)	intensity of the N-ter dimer band, immunoblotting with polyclonal antibody 479 [1]
CC[C@H](C)[C@H](NC(=O)[C@H](CC(C)C)NC(=O)[C@@H]1CCCN1C(=O)[C@H](CCCNC(=N)N)NC(=O)[C@H](CC(C)C)NC(=O)[C@H](CCC(=O)O)NC(=O)CCCCCNC(=O)[C@H](CCCNC(=N)N)NC(=O)[C@H](CCCNC(=N)N)NC(=O)[C@H](CCCNC(=N)N)NC(=O)[C@H](CCCNC(=N)N)NC(=O)[C@H](CCCNC(=N)N)NC(=O)[C@H](CCCNC(=N)N)NC(=O)[C@@H](N)CCCNC(=N)N)C(=O)N[C@@H](CCC(N)=O)C(=O)N[C@@H](CCC(N)=O)C(N)=O [Peptide R7-α2] (H-RRRRRRR[Ahx]ELRPLIQQ-NH2; N-terminus assumed)	dose dependent inhibition	significant reductions	ca. 50%	–
ELRPLIQQ [α2]	–	–	–	impaired in vitro dimer formation
FFEGMVHDS [α1]	–	–	–	impaired in vitro dimer formation
RRRRRRRXFFEGMVHDS [Peptide R7-α1]	dose dependent inhibition	–	–	–
